From US20100197627A1, “PANCREATIC CANCER TREATMENT” (priority 2003, published 2010)

What was measured:
[1] = test system: MIA-PaCa-2-RFP pancreatic cancer; experiment: Efficacy of oral CS-682 in surgical orthotopic implantation (SOI) mouse model of MIA-PaCa-2-RFP pancreatic cancer (Example 1); type: in vivo, nude mice (NCr-nu); settings: for median survival: control 17 days; for mice with evident intra-abdominal fluid (ascites) on examination: 100% of controls within 16 days
Procedure: The model employed pancreatic tumors derived from the MIA-PaCa-2 pancreatic cancer cell line.
The MIA-PaCa-2 pancreatic cancer cell line was obtained from the American Type Culture Collection (Rockville, Md.), maintained in DMEM media supplemented with 10% heat-inactivated fetal bovine serum and 1% penicillin and streptomycin (Gibco-BRL, Life Technologies, Inc., Grand Island, N.Y.) and cultured at 37° C. in a 5% CO2 incubator.
The pDsRed-2 vector (Clontech Laboratories Inc., Palo Alto, Calif.) was used to engineer MIA-PaCa-2 clones stably expressing RFP. This vector expresses RFP and the neomycin resistance gene on the same bicistronic message. pDsRed-2 was produced in PT67 packaging cells. RFP transduction was initiated by incubating 20% confluent MIA-PaCa-2 cells with retroviral supernatants of the packaging cells and DMEM for 24 hours. Fresh medium was replenished at this time and cells were allowed to grow in the absence of retrovirus for 12 hours. This procedure was repeated until high levels of RFP expression, as determined using fluorescence microscopy, were achieved. Cells were then harvested by trypsin/EDTA and subcultured into selective medium that contained 200 μg/ml G418. The level of G418 was increased to 2000 μg/ml stepwise. Clones expressing high levels of RFP were isolated with cloning cylinders as needed, and were amplified and transferred using conventional culture methods. High RFP-expression clones were isolated in the absence of G418 for 10 passages to select for stable expression of RFP in vivo.
Male nude mice (NCr-nu) between 4-6 weeks of age were maintained in a barrier facility on HEPA-filtered racks. The animals were fed with autoclaved laboratory rodent diet (Teckland LM-485; Western Research Products, Orange, Calif.). Animal experiments were performed in accordance with the Guidelines for the Care and Use of Laboratory Animals (NIH Publication Number 85-23) under assurance number A3873-01.
Red-fluorescent human pancreatic cancer xenografts were established in nude mice by surgical orthotopic implantation (SOI). Briefly, MIA-PaCa-2-RFP tumors in the exponential growth phase, grown subcutaneously in nude mice, were resected aseptically. Necrotic tissues were cut away, and the remaining healthy tumor tissues were cut with scissors and minced into 1 mm^3 pieces in RPMI 1640 medium. Mice were then anesthetized and their abdomens were sterilized with alcohol. An incision was then created through the left upper abdominal pararectal line and peritoneum. The pancreas was carefully exposed and two tumor pieces were transplanted onto the middle of the gland using a single 8-0 surgical suture (Davis-Geck, Inc., Manati, Puerto-Rico). The pancreas was then returned into the peritoneal cavity, and the abdominal wall and the skin were closed in two layers using 6-0 surgical sutures. All procedures were performed with a 7× microscope (Olympus) or standard surgical loupes.
(§1) CS-682 (1-(2-C-cyano-2-deoxy-β-D-arabino-pentofuranosyl)-N^4-palmitoylcytosine, Sankyo Pharmaceuticals, Tokyo) was administered by oral gavage. Prior to the first treatment, mice were randomized into eight groups of 10 mice each for treatment purposes.
(§2) Groups 2, 3 and 4 received 40, 60 and 80 mg/kg/dose CS-682, respectively, each scheduled treatment day.
(§3) […] received 20, 30, 40 and 50 mg/kg/dose CS-682 twice each treatment day, respectively.
(§4) Dosing was initiated five days after surgical orthotopic implantation, and was performed five days each week until death.
External, in vivo whole body imaging, for at least once a week, mice were weighed and underwent external, in vivo imaging. This was performed in a fluorescent light box illuminated by fiberoptic lighting at 470 nm (Lightools Research, Encinitas, Calif.). Emitted fluorescence was collected through a long-pass filter GG475 (Chroma Technology, Battleboro, Vt.) on a Hamamatsu C5810 3-chip cooled color CCD camera (Hamamatsu Photonics Systems, Bridgewater, N.J.). […]

[2] = Body weight loss and toxicity of oral CS-682 in tumor-bearing nude mice (Example 1); type: in vivo; settings: doses higher than 60 mg/kg per day, oral gavage
Procedure: as §1, §2, §3, §4
External, in vivo whole body imaging, for at least once a week, mice were weighed and underwent external, in vivo imaging. This was performed in a fluorescent light box illuminated by fiberoptic lighting at 470 nm (Lightools Research, Encinitas, Calif.). Emitted fluorescence was collected through a long-pass filter GG475 (Chroma Technology, Battleboro, Vt.) on a Hamamatsu C5810 3-chip cooled color CCD camera (Hamamatsu Photonics Systems, Bridgewater, N.J.). […] Images were processed for contrast and brightness and analyzed with the use of Image Pro Plus 3.1 software (Media Cybernetics, Silver Spring, Md.). Real-time determination of tumor burden was performed by quantifying fluorescent surface area, as described previously (Bouvet, M., et al., Cancer Res. (2002) 62:1534-1540).

[3] = test system: MIA-PaCa-2-RFP pancreatic cancer; experiment: Primary and adjuvant (after surgical resection) CS-682 in orthotopic MIA-PaCa-2-RFP metastatic pancreatic cancer mouse model (Example 2); type: in vivo, nude mice
From the text: The efficacy of oral CS-682 in the adjuvant treatment of metastatic pancreatic cancer was studied. […] The study discussed below used a highly aggressive clone of the human pancreatic cancer cell line MIA-PaCa-2 pancreatic cancer cell line that was engineered, as discussed above, to selectively express high levels of the Discosoma red fluorescent protein. This brightly fluorescent model facilitated the noninvasive quantification of tumor burden throughout the course of treatment.
The MIA-PaCa-2 pancreatic cancer cell line and the animals used in the study were prepared as discussed in Example 1, with the following exceptions. Following orthotopic implantation of MIA-PaCa-2-RFP tumors, each mouse in a treatment group requiring surgical resection of the primary pancreatic tumor was anesthetized and prepared for surgery. The peritoneum was subsequently reopened through the original incision and an examination of adjacent structures was performed to ensure that macroscopic disease was localized to the pancreas. All grossly visible tumor was removed using sharp dissection. Hemostasis was achieved using 6-0 sutures. The abdomen was then closed in two layers.
(§5) Seven days after SOI, mice were randomized into eight groups of 10 mice each, depending upon whether they were to be treated by surgical resection, chemotherapy or both. Mice in groups 1-4 were not treated surgically. […] Mice in groups 2-4 were treated with primary CS-682 at doses of 40, 50 Or 60 mg/kg each treatment day, respectively, according to the treatment schedules outlined below.
(§6) Mice in groups 5-8 underwent surgical resection of their primary tumors 7 days after orthotopic implantation by a single blinded surgeon. Mice in group 5 received no additional chemotherapy; mice in groups 6-8 received adjuvant CS-682 at doses of 40, 50 or 60 mg/kg each treatment day, respectively.
(§7) CS-682 was administered by oral gavage. Treatment with primary or adjuvant CS-682 was initiated 9 days after orthotopic tumor implantation (2 days after surgical resection when applicable) and was to be administered five times each treatment week for a total of 5 weeks or until death. […] In these groups, CS-682 was administered 9 times in weeks 1 and 2 after SOI and then 10 times in weeks 4 and 5, with a treatment hiatus during week 3.
(§8) Twice/week, mice were weighed and underwent external in vivo imaging. This was performed in a fluorescent light box illuminated by fiberoptic lighting at 470 nm (Lightools Research, Encinitas Calif.). […] Emitted fluorescence was collected through a long-pass filter GG475 (Chroma Technology, Battleboro, Vt.) on a Hamamatsu C5810 3-chip cooled color charge-coupled device camera (Hamamatsu Photonics Systems, Bridgewater, N.J.). High-resolution images of 1024×724 pixels were captured directly on an IBM PC or continuously through video output on a high-resolution Sony VCR model SLV-R1000 (Sony Corp., Tokyo, Japan). Images were processed for contrast and brightness and analyzed with the use of Image Pro Plus 3.1 software (Media Cybernetics, Silver Spring, Md.). Real-time determination of tumor burden was performed by quantifying fluorescent surface area.
Mice were sacrificed and explored when they appeared premorbid. After euthanasia, each mouse underwent laparotomy and sternotomy. Excitation of RFP in the light box, described above, facilitated identification of primary and metastatic disease by fluorescence visualization. After performing full-body open images, the solid organs were removed, and their surfaces were thoroughly examined for any evidence of metastases. Fluorescence microscopy was accomplished using a Leica fluorescence stereo microscope model LZ12 (Leica Microsystems, Inc., Bannockburn, Ill.) equipped with a mercury 50-W lamp power supply. Selective excitation of RFP was produced through a […]. Emitted fluorescence was collected by the Hamamatsu camera system described above. […]

[4] = Analysis of toxicity (body weight, general appearance) of CS-682 in Example 2 mice; type: in vivo; settings: for body weight: oral gavage
Procedure: as §5, §6, §7, §8
The body weight and general appearance of each mouse were monitored and recorded twice weekly as evidence of systemic toxicity. […] Wasting of body fat, most pronounced in the interscapular area of the back, was a common late finding that occurred in conjunction with disseminated disease.

[5] = test system: subcutaneously-implanted solid tumor xenografts; settings: several subcutaneously-implanted solid tumor xenografts; cited from earlier work
[6] = test system: tumor cell lines of the stomach, lung, colon and breast; settings: oral CS-682; cited from earlier work

CCCCCCCCCCCCCCCC(=O)Nc1ccn([C@@H]2O[C@H](CO)[C@@H](O)[C@@H]2C#N)c(=O)n1 [CS-682, 1-(2-C-cyano-2-deoxy-β-D-arabino-pentofuranosyl)-N^4-palmitoylcytosine]
median survival ([1]; 20 mg/kg twice daily oral, p=0.003): 27 days
tumor growth (mean area of external RFP autofluorescence) ([1]; 20 mg/kg twice daily, 40 mg/kg daily and 60 mg/kg daily, p<0.05 at each time point): inhibit pancreatic cancer growth
median survival ([1]; 30 mg/kg twice daily oral): 19 days
time until widespread tumor metastasis visible by whole-body RFP imaging ([1]; 40 mg/kg and 60 mg/kg daily, control within first two weeks): not visible until the third and fourth week post-implantation
development of metastases at autopsy (diaphragm, portal nodes, liver, intestinal nodes, kidney) ([1]; 40 mg/kg daily): significantly inhibited the development of metastases
median survival ([1]; 40 mg/kg daily oral, p=0.0008): 35 days
mice with locally confined disease ([1]; 40 mg/kg daily, day 16 after implantation): 90%
mice with evident intra-abdominal fluid (ascites) on examination ([1]; 40 mg/kg daily): 50%
primary tumor average weight at autopsy ([1]; 40 mg/kg daily, control 5.163 g, p=0.16): 3.935 g
median survival ([1]; 40 mg/kg twice daily oral): 19 days
median survival ([1]; 50 mg/kg twice daily oral): 18 days
effect on primary tumor growth (weight at autopsy) ([1]; 60 mg/kg daily (p=0.0004), 20 mg/kg twice daily (p=0.003)): significant effect on primary tumor growth
median survival ([1]; 60 mg/kg daily oral, p=0.002): 36 days
mice with evident intra-abdominal fluid (ascites) on examination ([1]; 60 mg/kg daily): 10%
median survival ([1]; 80 mg/kg daily oral): 19 days
toxicity-related death [2]: toxicity-related death was observed in a significant number of mice
mice that lived at least 60 days ([3]; adjuvant 50 mg/kg after surgical resection): 30%
animals with at most local disease confined to one abdominal quadrant ([3]; adjuvant 50 mg/kg after surgical resection, day 23): 70%
median survival ([3]; adjuvant 50 mg/kg after surgical resection, untreated 26 days, resection alone 28 days): 48 days
time after completion of chemotherapy until distant metastasis seen ([3]; adjuvant 50 mg/kg, the 30% of mice with long-term survival): 10 days
animals showing signs of fluid retention (ascites) at the time of their death ([3]; adjuvant CS-682 after surgical resection): 20%
survival versus treatment controls ([3]; adjuvant CS-682 after surgical resection, all doses tested (40, 50, 60 mg/kg)): significant increase in survival over treatment controls
survival versus untreated ([3]; primary CS-682 without resection, 40, 50 and 60 mg/kg): significantly enhanced the survival
body weight ([4]; 40 mg/kg each treatment day): not associated with a significant loss in body weight
body weight ([4]; 50 mg/kg each treatment day, chronic): did not lead to a significant loss of body weight
loss in body weight ([4]; 60 mg/kg, by day 20, after first nine doses): 15%
animals lost to toxicity ([4]; 60 mg/kg, modified schedule with hiatus in week 3, day 41): 1 animal
antitumor activity [5]: potent antitumor activity
cytotoxic activity compared with parent compound CNDAC [6]: more potent cytotoxic activity than its parent compound
